Test results published in paper PMC5556071, “ATR inhibition facilitates targeting of leukemia dependence on convergent nucleotide biosynthetic pathways” (Nature Communications, 2017).
Values joined by “and” are separate entries in the source; they are usually repeats but may differ in a detail not shown here. Equal values may be shown once.

System: CEM cells
Test: Non-targeted LC-MS metabolite profiling: percent [13C6]glucose labeling and relative metabolite levels
Assay type: cell-based, human
Description: To further investigate the functions of dCK and ATR at the G1/S transition in CEM cells, a non-targeted liquid chromatography mass spectrometry (LC-MS) assay was used to determine the utilization of labeled [^13C6]glucose and [^13C9,^15N3]deoxycytidine, the main substrates for de novo and salvage nucleotide biosynthesis, respectively. Of the 166 metabolites identified in CEM cells treated with VE-822 and/or dCKi, 105 metabolites found in all four treatment groups contained glucose-derived ^13C atoms. […] These metabolites included intermediates such as rUTP, rCTP and rCDP in the de novo dCTP biosynthesis (Fig. 1d). […] However, several deoxyribonucleotides, including dCTP, were below the limit of detection of the non-targeted LC-MS approach, raising the concern that the sensitivity of this assay is not sufficient to measure the contribution of the salvage pathway or the ratio of de novo and salvage biosynthesis to these pools. To address this problem, a newly developed targeted MS assay was developed (Fig. 1e and Supplementary Fig. 3). In this assay, samples containing either extracted dNTPs or hydrolyzed DNA from labeled cells are separated by LC for detection by a triple quadrupole mass spectrometer using multiple reaction monitoring (LC-MS/MS-MRM). The first (Q1) and third (Q3) quadrupoles function as mass filters, while the second (Q2) quadrupole serves as a collision chamber (Fig. 1e). For instance, to profile the biosynthetic composition of deoxycytidine (dC) derived from hydrolyzed DNA or dCTP, an intact, protonated dC ion is selected in Q1, followed by fragmentation of the glycosidic bond, which releases protonated cytosine in Q2, that is filtered in Q3 and detected to generate an ion chromatogram. The peak areas for the ion chromatograms of salvage [^13C9,^15N3]dC (red trace), de novo [^13C5]dC (black trace, from [^13C6]glucose) and unlabeled dC (gray trace) (Fig. 1e) are used to determine the relative contributions of the de novo and salvage routes both to dCTP pools and to DNA-incorporated dCTP.
Cells were transferred into RPMI-1640 without glucose and supplemented with 10% dialyzed FBS (Gibco) containing the following labeled substrates: precursors for de novo [U-^13C6]glucose (Sigma-Aldrich, 389374) at 11 mM; precursors for purine salvage [U-^13C10,^15N5]dA (Cambridge Isotopes, CIL 3896), [^15N5]dA (Cambridge Isotopes, NLM-3895) and [^15N5]dG (Cambridge Isotopes, NLM-3899) at 5 µM or as indicated; and precursors for pyrimidine salvage: [U-^13C9,^15N3]dC (Silantes, 124603602) and [U-^13C10,^15N2]dT (Cambridge Isotopes, CNLM-3902) at 5 µM and [^15N2]orotate (Cambridge Isotopes, NLM-1048) at indicated concentrations. The cells were incubated for 12 h or as indicated before sample collection and processing. […]
Non-targeted LC-MS metabolic assays. 1 x 10^6 cells were washed with ice-cold 150 mM ammonium acetate twice before adding 1 mL of ice-cold 80% methanol with 10 nM norvaline as an internal standard. After vigorous vortexing, samples were centrifuged at maximum speed, the aqueous layer was transferred to a glass vial and the metabolites were dried under vacuum. Metabolites were resuspended in 50 μL 70% acetonitrile (ACN) and 5 μL of this solution used for the mass spectrometer-based analysis. The analysis was performed on a Q Exactive (Thermo Scientific) in polarity-switching mode with positive voltage 4.0 kV and negative voltage 4.0 kV. The mass spectrometer was coupled to an UltiMate 3000RSLC (Thermo Scientific) UHPLC system. Mobile phase A was 5 mM ammonium acetate (NH4AcO), pH 9.9, B was acetonitrile and the separation achieved on a Luna […] NH2 100 A column (150 × 2.0 mm, Phenomenex). The flow was 200 μL/min, and the gradient ran from 15% A to 95% A in 18 min, followed by an isocratic step for 9 min and re-equilibration for 7 min. Metabolites were detected and quantified as area under the curve based on retention time and accurate mass (≤ 3 p.p.m.) using the TraceFinder 3.1 (Thermo Scientific). Relative amounts of […]

[1] = metabolite Gln (KEGG C00064), CEM cells, 12 h following release from G1 arrest, replicates #1-#6, listed as V
[2] = metabolite Glu (KEGG C00025), CEM cells, 12 h following release from G1 arrest, replicates #1-#6, listed as V
[3] = metabolite GlucA (KEGG C00191), CEM cells, 12 h following release from G1 arrest, replicates #1-#6, listed as V
[4] = metabolite Gly (KEGG C00037), CEM cells, 12 h following release from G1 arrest, replicates #1-#6, listed as V
[5] = metabolite Glycerol (KEGG C00116), CEM cells, 12 h following release from G1 arrest, replicates #1-#6, listed as V
[6] = metabolite Glycerol-2-P (KEGG C02979), CEM cells, 12 h following release from G1 arrest, replicates #1-#6, listed as V
[7] = metabolite Glycerol-3-P (KEGG C00093), CEM cells, 12 h following release from G1 arrest, replicates #1-#6, listed as V
[8] = metabolite Homocysteine (KEGG C00155), CEM cells, 12 h following release from G1 arrest, replicates #1-#6, listed as V
[9] = metabolite Hypoxanthine (KEGG C00262), CEM cells, 12 h following release from G1 arrest, replicates #1-#6, listed as V
[10] = metabolite IMP (KEGG C00130), CEM cells, 12 h following release from G1 arrest, replicates #1-#6, listed as V
[11] = metabolite Inosine (KEGG C00294), CEM cells, 12 h following release from G1 arrest, replicates #1-#6, listed as V
[12] = metabolite a-KG (C00026), CEM cells, 12 h following release from G1 arrest, replicates #1-#6, listed as V

CNCc1ccc(-c2cc(-c3nc(-c4ccc(S(=O)(=O)C(C)C)cc4)cnc3N)on2)cc1 [VE-822]
Glucose labeling of Gln [1]: 0.12% (2×) and 0.11% and 0.10% and 0.14% and 0.13%
Relative level of Gln [1]: 1.4 and 1.5 (2×) and 1.0 (2×) and 1.1
Glucose labeling of Glu [2]: 29.64% and 29.75% and 29.30% and 29.37% and 29.63% and 30.02%
Relative level of Glu [2]: 1.1 and 1.0 (2×) and 0.8 and 0.6 (2×)
Glucose labeling of GlucA [3]: 1.00% and 0.54% and 0.16% and 1.19% and 0.18% (2×)
Relative level of GlucA [3]: 1.5 and 1.3 (2×) and 0.9 and 0.664 and 0.6
Glucose labeling of Gly [4]: 3.91% and 4.81% and 4.97% and 3.57% and 3.82% and 3.53%
Relative level of Gly [4]: 1.8 and 1.3 (2×) and 0.853 and 0.8 and 0.846
Glucose labeling of Glycerol [5]: 0.0369% (3×) and 0.02% and 0.03% and 0.0184%
Relative level of Glycerol [5]: 0.6 and 1.0 and 0.643 and 1.2 (2×) and 2.5
Glucose labeling of Glycerol-2-P [6]: 20.62% and 19.08% and 14.73% and 9.01% and 11.61% and 10.03%
Relative level of Glycerol-2-P [6]: 2.7 and 1.2 and 1.6 and 1.8 and 0.334 and 0.262
Glucose labeling of Glycerol-3-P [7]: 13.71% and 13.99% and 13.43% and 15.94% and 16.61% and 16.91%
Relative level of Glycerol-3-P [7]: 1.3 and 1.4 (2×) and 1.0 (2×) and 0.9
Glucose labeling of HS2O3 (metabolite HS2O3 (KEGG C00320), CEM cells, 12 h following release from G1 arrest, replicates #1-#6): 100.00%
Relative level of HS2O3 (metabolite HS2O3 (KEGG C00320), CEM cells, 12 h following release from G1 arrest, replicates #1-#6, listed as V): 1.2 and 0.9 and 1.0 (3×) and 1.1
Glucose labeling of His (metabolite His (KEGG C00135), CEM cells, 12 h following release from G1 arrest, replicates #1-#6): 0.00%
Relative level of His (metabolite His (KEGG C00135), CEM cells, 12 h following release from G1 arrest, replicates #1-#6, listed as V): 1.3 and 1.5 and 1.4 and 0.7 and 0.8 (2×)
Glucose labeling of Homocysteine [8]: 0.000288% and 0.000653% and 0.00102% and 0.000955% and 0.0737% (2×)
Relative level of Homocysteine [8]: 2.9 and 3.8 and 5.4 and 40.5 and 0.9 and 1.3
Glucose labeling of Hypoxanthine [9]: 0.12% (2×) and 0.05% and 0.0153% and 0.00222% and 0.0636%
Relative level of Hypoxanthine [9]: 2.4 and 3.2 and 4.8 and 46.0 and 2.3 and 1.3
Glucose labeling of IMP [10]: 85.88% and 80.98% and 88.08% and 72.70% and 96.97% and 95.32%
Relative level of IMP [10]: 2.4 and 1.3 (2×) and 1.7 and 0.4 (2×)
Glucose labeling of Inosine [11]: 46.28% and 0.55% and 45.89% and 28.71% and 31.06% and 6.95%
Relative level of Inosine [11]: 1.9 and 1.5 and 4.0 and 5.0 and 1.2 and 4.1
Glucose labeling of Inositol (metabolite Inositol (KEGG C00137), CEM cells, 12 h following release from G1 arrest, replicates #1-#6): 0.00%
Relative level of Inositol (metabolite Inositol (KEGG C00137), CEM cells, 12 h following release from G1 arrest, replicates #1-#6, listed as V): 1.2 and 1.3 (2×) and 1.0 (3×)
Glucose labeling of Isocaproate (metabolite Isocaproate (X00005), CEM cells, 12 h following release from G1 arrest, replicates #1-#6): 0.00%
Relative level of Isocaproate (metabolite Isocaproate (X00005), CEM cells, 12 h following release from G1 arrest, replicates #1-#6, listed as V): 0.949 and 1.1 and 1.2 and 0.9 and 1.0 and 0.7
Glucose labeling, a-KG [12]: 12.64% and 3.49% and 7.53% and 10.05% and 2.98% and 1.28%
Relative level, a-KG [12]: 1.7 and 0.7 and 1.0 and 0.9 and 0.3 and 0.255
decrease of glucose labeling of orotidine monophosphate (OMP) (non-targeted LC-MS analysis): 30%
